In this assay the test system is MV-4-11 cells. In words: Gene expression microarray analysis (Affymetrix PrimeView) and GSEA. Type of assay: cell-based, human. Set-up: RFU PODN (11730768_x_at) / Fold change /veh PODN (11730768_x_at) / RFU LINC00158 (11744669_a_at) / Fold change /veh LINC00158 (11744669_a_at) / RFU DUSP10 (11751237_a_at) / Fold change /veh DUSP10 (11751237_a_at) / RFU ID3 (11757404_x_at) / Fold change /veh ID3 (11757404_x_at) / RFU PLEKHG5 (11737974_s_at) / Fold change /veh PLEKHG5 (11737974_s_at) / RFU LRRC4B (11730491_at) / Fold change /veh LRRC4B (11730491_at) / RFU GIMAP4 (11747438_a_at) / Fold change /veh GIMAP4 (11747438_a_at) / RFU KRT8 (11758183_x_at) / Fold change /veh KRT8 (11758183_x_at) / RFU CNN1 (11734310_a_at) / Fold change /veh CNN1 (11734310_a_at) / RFU VPS37D (11726825_at) / Fold change /veh VPS37D (11726825_at) / RFU C10orf10 (11716522_x_at) / Fold change /veh C10orf10 (11716522_x_at) / RFU KIR2DL2 /// KIR2DL4 /// KIR2DL5A /// KIR2DL5B /// KIR2DS1 /// KIR2DS2 /// KIR2DS3 /// KIR2DS4 /// KIR3DL3 /// KIR3DL3 /// KIR3DS1 (11738374_at) / Fold change /veh KIR2DL2 /// KIR2DL4 /// KIR2DL5A /// KIR2DL5B /// KIR2DS1 /// KIR2DS2 /// KIR2DS3 /// KIR2DS4 /// KIR3DL3 /// KIR3DL3 /// KIR3DS1 (11738374_at) / RFU C1QL1 (11718748_at) / Fold change /veh C1QL1 (11718748_at) / RFU TMPRSS4 (11747572_a_at) / Fold change /veh TMPRSS4 (11747572_a_at) / RFU HAMP (11756126_x_at) / Fold change /veh HAMP (11756126_x_at) / RFU RNFT2 (11725882_a_at) / Fold change /veh RNFT2 (11725882_a_at) / RFU NR4A2 (11747474_a_at) / Fold change /veh NR4A2 (11747474_a_at) / RFU ABCC12 (11746883_a_at) / Fold change /veh ABCC12 (11746883_a_at) / RFU TMEM136 (11760407_x_at) / Fold change /veh TMEM136 (11760407_x_at) / RFU CLDN22 /// WWC2 (11732394_at) / Fold change /veh CLDN22 /// WWC2 (11732394_at) / RFU HLA-DPB1 (11760878_x_at) / Fold change /veh HLA-DPB1 (11760878_x_at) / RFU SPINT1 (11716480_a_at) / Fold change /veh SPINT1 (11716480_a_at) / RFU GAP43 (11754022_s_at) / Fold change /veh GAP43 (11754022_s_at) / RFU A4GNT (11735810_at) / Fold change /veh A4GNT (11735810_at) / RFU PRB3 (11715151_x_at) / Fold change /veh PRB3 (11715151_x_at) / RFU TUBB4B (11761932_at) / Fold change /veh TUBB4B (11761932_at) / RFU CAPN14 (11732068_a_at) / Fold change /veh CAPN14 (11732068_a_at) / RFU TMCC2 (11721928_a_at) / Fold change /veh TMCC2 (11721928_a_at) / RFU IRGQ (11745062_a_at) / Fold change /veh IRGQ (11745062_a_at) / RFU FAM174B (11720279_a_at) / Fold change /veh FAM174B (11720279_a_at) / RFU TMPRSS4 (11748680_a_at) / Fold change /veh TMPRSS4 (11748680_a_at) / RFU FAM212B (11763350_a_at) / Fold change /veh FAM212B (11763350_a_at) / RFU PLEKHG5 (11743358_a_at) / Fold change /veh PLEKHG5 (11743358_a_at) / RFU ZSCAN30 (11745921_a_at) / Fold change /veh ZSCAN30 (11745921_a_at) / RFU CMKLR1 (11741424_a_at) / Fold change /veh CMKLR1 (11741424_a_at) / RFU LOC101060620 /// MAPK8IP1 (11723275_at) / Fold change /veh LOC101060620 /// MAPK8IP1 (11723275_at) / RFU SPTSSB (11747773_x_at) / Fold change /veh SPTSSB (11747773_x_at) / RFU PRSS12 (11739890_at) / Fold change /veh PRSS12 (11739890_at) / RFU BIN1 (11741810_x_at) / Fold change /veh BIN1 (11741810_x_at) / RFU WNT11 (11732464_a_at) / Fold change /veh WNT11 (11732464_a_at) / RFU C10orf10 (11716521_a_at) / Fold change /veh C10orf10 (11716521_a_at) / RFU C5orf56 (11738089_at) / Fold change /veh C5orf56 (11738089_at) / RFU CYB561 (11721691_x_at) / Fold change /veh CYB561 (11721691_x_at) / RFU ANKRD19P (11752326_a_at) / Fold change /veh ANKRD19P (11752326_a_at) / RFU OR2T12 /// OR2T33 /// OR2T8 (11738714_s_at) / Fold change /veh OR2T12 /// OR2T33 /// OR2T8 (11738714_s_at) / RFU VCAN (11748164_a_at) / Fold change /veh VCAN (11748164_a_at) / RFU JSRP1 (11732532_at) / Fold change /veh JSRP1 (11732532_at) / RFU KRTAP10-11 (11738290_x_at) / Fold change /veh KRTAP10-11 (11738290_x_at) / RFU MYO3A (11730013_a_at) / Fold change /veh MYO3A (11730013_a_at) / RFU EBF3 (11725865_a_at) / Fold change /veh EBF3 (11725865_a_at) / RFU CAMK2N1 (11719241_x_at) / Fold change /veh CAMK2N1 (11719241_x_at) / RFU C5orf56 (11738088_a_at) / Fold change /veh C5orf56 (11738088_a_at) / RFU OLFML3 (11715873_a_at) / Fold change /veh OLFML3 (11715873_a_at) / RFU LOC100653217 /// NTM (11731650_a_at) / Fold change /veh LOC100653217 /// NTM (11731650_a_at) / RFU MAPK11 (11762145_a_at) / Fold change /veh MAPK11 (11762145_a_at) / RFU FIZ1 (11724087_x_at) / Fold change /veh FIZ1 (11724087_x_at) / RFU OASL (11726364_x_at) / Fold change /veh OASL (11726364_x_at) / RFU SOX15 (11748057_x_at) / Fold change /veh SOX15 (11748057_x_at) / RFU CD79A (11719716_a_at) / Fold change /veh CD79A (11719716_a_at) / RFU HIST1H1D (11736915_at) / Fold change /veh HIST1H1D (11736915_at) / RFU CASKIN2 (11723855_a_at) / Fold change /veh CASKIN2 (11723855_a_at) / RFU LOC730098 (11760151_x_at) / Fold change /veh LOC730098 (11760151_x_at) / RFU OR4N2 (11742367_at) / Fold change /veh OR4N2 (11742367_at) / RFU PRRT2 (11749266_a_at) / Fold change /veh PRRT2 (11749266_a_at) / RFU SNX32 (11753110_a_at) / Fold change /veh SNX32 (11753110_a_at) / RFU CDHR5 (11726645_a_at) / Fold change /veh CDHR5 (11726645_a_at) / RFU RCAN1 (11760418_a_at) / Fold change /veh RCAN1 (11760418_a_at) / RFU FAM167A (11723789_a_at) / Fold change /veh FAM167A (11723789_a_at) / RFU FAM26E (11764081_at) / Fold change /veh FAM26E (11764081_at) / RFU ISYNA1 (11749810_s_at) / Fold change /veh ISYNA1 (11749810_s_at) / RFU ACY1 (11761880_at) / Fold change /veh ACY1 (11761880_at) / RFU 11764098_at / Fold change /veh 11764098_at / RFU SAMD14 (11745864_x_at) / Fold change /veh SAMD14 (11745864_x_at) / RFU NPB (11741838_a_at) / Fold change /veh NPB (11741838_a_at) / RFU TMPRSS6 (11731388_a_at) / Fold change /veh TMPRSS6 (11731388_a_at) / RFU KRTAP10-2 (11738614_at) / Fold change /veh KRTAP10-2 (11738614_at) / RFU ARHGAP8 /// PRR5-ARHGAP8 (11727945_x_at) / Fold change /veh ARHGAP8 /// PRR5-ARHGAP8 (11727945_x_at) / RFU KRTAP5-7 /// NADSYN1 (11734609_at) / Fold change /veh KRTAP5-7 /// NADSYN1 (11734609_at) / RFU RASL12 (11751679_a_at) / Fold change /veh RASL12 (11751679_a_at) / RFU CDKN2B (11736163_a_at) / Fold change /veh CDKN2B (11736163_a_at) / RFU PRF1 (11729649_at) / Fold change /veh PRF1 (11729649_at) / RFU, ZNF638 /// ZNF638-IT1 / Fold change vs veh, ZNF638 /// ZNF638-IT1 / RFU, PANK3 / Fold change vs veh, PANK3 / RFU, SH3YL1 / Fold change vs veh, SH3YL1 / RFU, ZEB2 / Fold change vs veh, ZEB2 / RFU, NRIP1 / Fold change vs veh, NRIP1 / RFU, PTTG1IP / Fold change vs veh, PTTG1IP / RFU, CAPN2 / Fold change vs veh, CAPN2 / RFU, MED14 / Fold change vs veh, MED14 / RFU, SNORA58 / Fold change vs veh, SNORA58 / RFU, C1orf63 / Fold change vs veh, C1orf63 / RFU, LRRFIP1 / Fold change vs veh, LRRFIP1 / RFU, NDUFAF7 / Fold change vs veh, NDUFAF7 / RFU, SLC12A2 / Fold change vs veh, SLC12A2 / RFU, IBTK / Fold change vs veh, IBTK / RFU, ESF1 / Fold change vs veh, ESF1 / Fold change vs veh, TMEM50B / RFU, TAOK1 / Fold change vs veh, TAOK1 / RFU, ACBD3 / Fold change vs veh, ACBD3 / RFU, TMA16 / Fold change vs veh, TMA16 / RFU, RWDD3 / Fold change vs veh, RWDD3 / RFU, BCAT1 / Fold change vs veh, BCAT1 / RFU, EDEM3 / Fold change vs veh, EDEM3 / RFU, TMEM33 / Fold change vs veh, TMEM33 / RFU, WDR75 / Fold change vs veh, WDR75 / RFU, AHCTF1 / Fold change vs veh, AHCTF1 / RFU, TFRC / Fold change vs veh, TFRC / RFU, ZDHHC17 / Fold change vs veh, ZDHHC17 / RFU, NOM1 / Fold change vs veh, NOM1 / RFU, ARL8B / Fold change vs veh, ARL8B / RFU, ZBTB11 / Fold change vs veh, ZBTB11 / RFU, TAMM41 / Fold change vs veh, TAMM41 / RFU, KIAA1704 /// LOC100996395 / Fold change vs veh, KIAA1704 /// LOC100996395 / RFU, ING1 / Fold change vs veh, ING1 / RFU, TRMT61B / Fold change vs veh, TRMT61B / RFU, FUBP3 / Fold change vs veh, FUBP3 / RFU, TP53 / Fold change vs veh, TP53 / RFU, TNKS2 / Fold change vs veh, TNKS2 / RFU, ZFP14 / Fold change vs veh, ZFP14 / RFU, ACTR2 / Fold change vs veh, ACTR2 / RFU, PPP3R1 / Fold change vs veh, PPP3R1 / RFU, PIK3R1 / Fold change vs veh, PIK3R1 / RFU, HNRNPA1 / Fold change vs veh, HNRNPA1 / RFU, RNF170 / Fold change vs veh, RNF170 / RFU, ZNF28 / Fold change vs veh, ZNF28 / RFU, RNGTT / Fold change vs veh, RNGTT / RFU, OGT / Fold change vs veh, OGT / RFU, BRD1 / Fold change vs veh, BRD1 / RFU, MARS / Fold change vs veh, MARS / RFU, ZNF655 / Fold change vs veh, ZNF655 / RFU, FAHD1 / Fold change vs veh, FAHD1 / RFU, BDP1 / Fold change vs veh, BDP1 / RFU, LRRCC1 / Fold change vs veh, LRRCC1 / RFU, ARID1A / Fold change vs veh, ARID1A / RFU, ZNF146 / Fold change vs veh, ZNF146 / RFU, ZNF330 / Fold change vs veh, ZNF330 / RFU, GPN3 / Fold change vs veh, GPN3 / RFU, C9orf123 / Fold change vs veh, C9orf123 / RFU, N4BP2L2 / Fold change vs veh, N4BP2L2 / RFU, ARFIP1 / Fold change vs veh, ARFIP1 / RFU, FAM179B / Fold change vs veh, FAM179B / RFU, BCL10 / Fold change vs veh, BCL10 / RFU, UHRF1BP1L / Fold change vs veh, UHRF1BP1L / RFU, BET1 / Fold change vs veh, BET1 / RFU, CNOT2 / Fold change vs veh, CNOT2 / RFU, ZNF268 / Fold change vs veh, ZNF268 / Fold change vs veh, ZNF507 / RFU, DGCR2 / Fold change vs veh, DGCR2 / RFU, WDSUB1 / Fold change vs veh, WDSUB1 / Fold change vs veh, HSP90B1 /// MIR3652 / RFU, ADSS / Fold change vs veh, ADSS / RFU, GK / Fold change vs veh, GK / RFU, ZNF148 / Fold change vs veh, ZNF148 / RFU, TAF9 / Fold change vs veh, TAF9 / RFU, SLC1A5 / Fold change vs veh, SLC1A5 / RFU, SLMO2 / Fold change vs veh, SLMO2 / RFU, ABCC4 / Fold change vs veh, ABCC4 / RFU, LOC101060439 /// RAP1B / Fold change vs veh, LOC101060439 /// RAP1B / RFU, RFX7 / Fold change vs veh, RFX7 / RFU, GTPBP10 / Fold change vs veh, GTPBP10 / RFU, CNEP1R1 / Fold change vs veh, CNEP1R1 / RFU, BIVM-ERCC5 /// ERCC5 / Fold change vs veh, BIVM-ERCC5 /// ERCC5 / RFU, ILF3 / Fold change vs veh, ILF3 / RFU 11762660_at / Fold change /veh 11762660_at / RFU VCAN (11757783_s_at) / Fold change /veh VCAN (11757783_s_at) / RFU DDX43 (11728927_at) / Fold change /veh DDX43 (11728927_at) / RFU KRT8 (11758188_x_at) / Fold change /veh KRT8 (11758188_x_at) / RFU NKD1 (11759106_at) / Fold change /veh NKD1 (11759106_at) / RFU SRD5A1 (11742802_a_at) / Fold change /veh SRD5A1 (11742802_a_at) / RFU TPSAB1 /// TPSB2 (11721975_s_at) / Fold change /veh TPSAB1 /// TPSB2 (11721975_s_at) / RFU GSTM3 (11746129_a_at) / Fold change /veh GSTM3 (11746129_a_at) / RFU IL23R (11737362_x_at) / Fold change /veh IL23R (11737362_x_at) / RFU TMEM51 (11727254_a_at) / Fold change /veh TMEM51 (11727254_a_at) / RFU PIWIL2 (11732686_x_at) / Fold change /veh PIWIL2 (11732686_x_at) / RFU ORM1 (11744905_x_at) / Fold change /veh ORM1 (11744905_x_at) / RFU CCDC152 (11743942_at) / Fold change /veh CCDC152 (11743942_at) / RFU ECM1 (11717891_a_at) / Fold change /veh ECM1 (11717891_a_at) / RFU IL23R (11748794_a_at) / Fold change /veh IL23R (11748794_a_at) / RFU TNFAIP8L3 (11732012_x_at) / Fold change /veh TNFAIP8L3 (11732012_x_at) / RFU MBOAT4 (11741988_at) / Fold change /veh MBOAT4 (11741988_at) / RFU 11764193_at / Fold change /veh 11764193_at / RFU TMEM53 (11763286_at) / Fold change /veh TMEM53 (11763286_at) / RFU MAGEB2 (11727129_at) / Fold change /veh MAGEB2 (11727129_at) / RFU TMEM200A (11744735_a_at) / Fold change /veh TMEM200A (11744735_a_at) / RFU CCDC152 (11751479_a_at) / Fold change /veh CCDC152 (11751479_a_at) / RFU FAM211A (11726209_a_at) / Fold change /veh FAM211A (11726209_a_at) / RFU RGS16 (11746705_a_at) / Fold change /veh RGS16 (11746705_a_at) / RFU VCAN (11755009_s_at) / Fold change /veh VCAN (11755009_s_at) / RFU RHOB (11743442_s_at) / Fold change /veh RHOB (11743442_s_at) / RFU RGS16 (11720943_a_at) / Fold change /veh RGS16 (11720943_a_at) / RFU RGS16 (11720944_at) / Fold change /veh RGS16 (11720944_at) / RFU, VPS4B / Fold change vs veh, VPS4B / RFU, CREB1 / Fold change vs veh, CREB1 / RFU, DNAJC13 / Fold change vs veh, DNAJC13 / RFU, GNAQ / Fold change vs veh, GNAQ / RFU, CDK5R1 / Fold change vs veh, CDK5R1 / RFU, ZRANB3 / Fold change vs veh, ZRANB3 / RFU, CUL4A / Fold change vs veh, CUL4A / RFU, CCNY / Fold change vs veh, CCNY / RFU, UFL1 / Fold change vs veh, UFL1 / RFU, COG3 / Fold change vs veh, COG3 / RFU, DIAPH2 / Fold change vs veh, DIAPH2 / RFU, SKA2 / Fold change vs veh, SKA2 / RFU, AFF3 / Fold change vs veh, AFF3 / RFU, LMF1 / Fold change vs veh, LMF1 / RFU, IPO11 / Fold change vs veh, IPO11 / RFU, DFFB / Fold change vs veh, DFFB / RFU, FOXP1 / Fold change vs veh, FOXP1 / RFU, CARD8 / Fold change vs veh, CARD8 / RFU, STRN3 / Fold change vs veh, STRN3 / RFU, ADK / Fold change vs veh, ADK / RFU, RASSF2 / Fold change vs veh, RASSF2 / RFU, WIPF1 / Fold change vs veh, WIPF1 / RFU, LARP1B / Fold change vs veh, LARP1B / RFU, RASA1 / Fold change vs veh, RASA1 / RFU, RB1 / Fold change vs veh, RB1 / RFU, PPFIA1 / Fold change vs veh, PPFIA1 / RFU, MAT2A / Fold change vs veh, MAT2A / RFU, CCT5 / Fold change vs veh, CCT5 / RFU, WDR92 / Fold change vs veh, WDR92 / RFU, CUX1 / Fold change vs veh, CUX1 / RFU, TTC7A / Fold change vs veh, TTC7A / RFU, TMEM135 / Fold change vs veh, TMEM135 / RFU, DEPTOR / Fold change vs veh, DEPTOR / RFU, CPM / Fold change vs veh, CPM / RFU, DNAJB6 / Fold change vs veh, DNAJB6 / RFU, CACNA2D3 / Fold change vs veh, CACNA2D3 / RFU, DTX4 / Fold change vs veh, DTX4 / RFU, TFCP2 / Fold change vs veh, TFCP2 / RFU, GMCL1 /// GMCL1P1 / Fold change vs veh, GMCL1 /// GMCL1P1 / RFU, AEBP2 / Fold change vs veh, AEBP2 / RFU, SNHG1 /// SNORD22 /// SNORD25 /// SNORD26 /// SNORD27 /// SNORD28 /// SNORD29 /// SNORD31 / Fold change vs veh, SNHG1 /// SNORD22 /// SNORD25 /// SNORD26 /// SNORD27 /// SNORD28 /// SNORD29 /// SNORD31 / Fold change (Aza/veh), C12orf56 (ProbeSet 11735607_a_at) / Fold change (ACY-1035/veh), C12orf56 (ProbeSet 11735607_a_at) / Fold change (Aza/veh), FGFR1OP (ProbeSet 11751329_s_at) / Fold change (ACY-1035/veh), FGFR1OP (ProbeSet 11751329_s_at) / Fold change (Aza/veh), VPS36 (ProbeSet 11739960_a_at) / Fold change (ACY-1035/veh), VPS36 (ProbeSet 11739960_a_at) / RFU SYPL1 (11715823_x_at) / Fold change /veh SYPL1 (11715823_x_at) / RFU IGFBP7 (11715501_s_at) / Fold change /veh IGFBP7 (11715501_s_at) / RFU REEP3 (11722064_at) / Fold change /veh REEP3 (11722064_at) / RFU IGLL1 (11728026_x_at) / Fold change /veh IGLL1 (11728026_x_at): dose or concentration left out as unconfirmed. The following applies: ProbeSet 11723930_at; LIST D.

Regarding `Nc1ncn([C@@H]2O[C@H](CO)[C@@H](O)[C@H]2O)c(=O)n1` [azacitidine], the “Fold change vs veh, CCT5” value is 0.69.

The record behind these values is article PMC5218480 (PLoS ONE, 2017).
